As usually defined, the Ki is the dissociation constant of the complex between target and ligand, obtained from inhibition or displacement.

From patent publication US9868730B2, “Kappa opioid receptor selective compounds, compositions, and uses thereof” (The Trustees of Columbia University in the City of New York, priority 2013, dated 2018) come the findings set out here.

“Also recorded” adds a separate entry of the source. Where only a bound is given, the exact number is not on record here.

Experiment [1] deals with T1, KOP receptor (Homo sapiens, UniProt P41145). Description: BRET-based G protein (GαoB) activation assay in HEK293T cells. Type of experiment: cell-based. Conditions: for EC50: hKOP co-expressed with GαoB-RLuc8, β1, mVenus-γ2, read-out: potency (EC50) of GαoB activation at hKOP; for agonistic activity at hKOP (G protein activation), in words: relative to EKC. On the set-up: host or cells: HEK293T. An excerpt:
(§1) The cDNAs for human KOP (hKOP) receptor and the G protein GαoB were obtained from the Missouri S&T cDNA Resource Center. For arrestin recruitment experiments, full-length Renilla luciferase 8 (RLuc8, provided by S. Gambhir) was fused in-frame to the C terminus of the hKOP receptor in the pcDNA3.1 vector. The following human G protein constructs were provided by C. Gales (Gales et al., 2006; Sauliere et al., 2012): GαoB with RLuc8 inserted at position 91 (GαoB-RLuc8); untagged Gβ1 (β1); untagged Gγ2 (γ2). The human γ2 subunit was fused to full-length mVenus at its N terminus (mVenus-γ2), and the fusion construct human arrestin3-mVenus was used as previously described (Klewe et al., 2008). All constructs were confirmed by sequencing analysis. A total of 20 μg of plasmid cDNA (e.g. 0.2 μg of hKOR-RLuc8, 15 μg of arrestin3-mVenus, and 4.8 μg of pcDNA3.1) was transfected into HEK-293T cells using polyethylenimine (Polysciences Inc., Warrington, Pa.) in a 1:3 ratio in 10-cm dishes. Cells were maintained in culture with DMEM supplemented with 10% FBS. The transfected ratio among receptor, Gα, β1, and γ2, or arrestin was optimized by testing various ratios of plasmids encoding the different sensors. Experiments were performed 48 hours after transfection.
(§2) BRET was performed as described (Guo et al., 2008). Briefly, two days after transfection, cells were harvested, washed, and re-suspended in a phosphate-buffered saline (PBS) solution. Approximately 200,000 cells/well were distributed in 96-well plates, and 5 μM coelenterazine H (luciferase substrate) was added to each well. Five minutes after the addition of coelenterazine H, ligands were added to each well, and after 2 minutes for G protein activation or 5 minutes for arrestin recruitment, the BRET signal was determined by quantifying and calculating the ratio of the light emitted by mVenus, the energy acceptor (510-540 nm), over that emitted by RLuc8, the energy donor (485 nm). The drug-induced BRET signal was normalized, taking the Emax of the ethylketocyclazocine (EKC)-induced response as 100%. To measure cAMP accumulation, a BRET-based cAMP in a previously described YFP-Epac-RLuc (CAMYEL) assay was used (Jiang et al., 2007). GαoB B, β1, and γ2 were co-expressed to enhance the signal-to-noise ratio, and the cells were treated for 5 minutes with 100 μM forskolin prior to stimulation (Jiang et al., 2007). The data were normalized and represented as the percentage of forskolin-stimulated cAMP accumulation with 0 defined as the maximal inhibition elicited by EKC.
To assess whether any of these molecules had agonistic activity, a BRET-based G protein activation assay where the hKOP receptor was co-expressed in HEK293T cells with GαoB-RLuc8, β1, and mVenus-γ2 was used. The drug-induced BRET signal is interpreted as a dissociation of and/or conformational change within the Gαβγ complex, and thus, as the activation of the co-expressed G protein.

Experiment [2] deals with T1, KOP receptor. Description: BRET-based arrestin3 recruitment assay. Type of experiment: cell-based. Further details: host or cells: HEK293T. Conditions: hKOP-RLuc8 with arrestin3-mVenus; read-out: potency of arrestin3 recruitment at hKOP.
Source text: as §1
BRET was performed as described (Guo et al., 2008). Briefly, two days after transfection, cells were harvested, washed, and re-suspended in a phosphate-buffered saline (PBS) solution. Approximately 200,000 cells/well were distributed in 96-well plates, and 5 μM coelenterazine H (luciferase substrate) was added to each well. Five minutes after the addition of coelenterazine H, ligands were added to each well, and after 2 minutes for G protein activation or 5 minutes for arrestin recruitment, the BRET signal was determined by quantifying and calculating the ratio of the light emitted by mVenus, the energy acceptor (510-540 nm), over that emitted by RLuc8, the energy donor (485 nm). The drug-induced BRET signal was normalized, taking the Emax of the ethylketocyclazocine (EKC)-induced response as 100%. […]
In general terms: In BRET a luciferase serves as donor, and the signal depends on an acceptor being close.

Experiment [3] deals with T2, MOP receptor (Homo sapiens, UniProt P35372). Description: BRET-based G protein activation assay. Type of experiment: cell-based. On the set-up: expressed in transfected cells. Here is the method: as §2
Experiment [4] has as its target T3, DOP receptor (Homo sapiens, UniProt P41143). Description: BRET-based G protein activation assay. Type of experiment: cell-based. The note with it: for EC50: read-out: potency of G protein activation at DOP. On the set-up: expressed in transfected cells. Here is the method: as §2
For experiment [5], the target named is T1, KOP receptor. Description: Competitive inhibition of 3H-diprenorphine binding, membranes of transfected HEK293T cells. Further details: host or cells: HEK293T. Conditions: for inhibition of 3H-diprenorphine binding: 100 μM compound, room temperature, 1 hour; for inhibition of 3H-diprenorphine binding / Ki: 0.3 nM 3H-diprenorphine; for Ki: means ± S.E.M. (n = 3), read-out: Ki KOP. The protocol:
(§3) Two days after transfection with human KOP receptor and GαoB, HEK293T cells were lysed and membranes were prepared in HEPES buffer (NaCl 140 mM, KCl 5.4 mM, HEPES 25 mM, EDTA 1 mM, MgCl2 2 mM, BSA 0.006%, pH 7.4) using a Polytron homogenizer. Membranes were incubated with ^3H-diprenorphine (0.3 nM) (PerkinElmer, Waltham, Mass.) at room temperature for 1 hour in a final volume of 1 ml, in the absence or presence of various concentrations of each small-molecule selected from the virtual screening. Membranes were then harvested using a Brandel cell harvester through a Whatman FPD-24 934AH glass-fiber filter and washed three times with ice-cold wash Buffer (Tris-HCl 10 mM, NaCl 120 mM, pH 7.4). Non-specific binding was determined using 400 nM of NorBNI.
The primary experimental testing of MCKK-1-22 consisted of performing a competitive inhibition binding assay at the hKOP receptor. Membranes of HEK293T cells transfected with the hKOP receptor and GαoB were prepared and incubated with ^3H-diprenorphine (0.3 nM) in the absence or presence of 10 or 100 μM of each small-molecule from the virtual screening.
(§4) To assess the degree of selectivity of MCKK-4, MCKK-5, MCKK-13, MCKK-17R or MCKK-17S for the hKOP over the DOP and MOP receptors, competitive inhibition of ^3H-diprenorphine (0.3 nM) binding in the absence or presence of various concentrations of each molecule were performed, and their Ki values for each receptor were determined (Table 2 below).

The target of experiment [6] is T1, KOP receptor. As to the kind of experiment: G protein bias from BRET-based G protein activation and arrestin recruitment assays. Type of experiment: cell-based.
Experiment [7] addresses T2, MOP receptor. As to the kind of experiment: Competitive inhibition of 3H-diprenorphine binding. Conditions: 0.3 nM 3H-diprenorphine; means ± S.E.M. (n = 3). Here is the method: as §3, §4
Experiment [8] has as its target T3, DOP receptor. Description: Competitive inhibition of 3H-diprenorphine binding. The note with it: 0.3 nM 3H-diprenorphine; means ± S.E.M. (n = 3). Here is the method:
as §3, §4

Take `O=C(CN1CCCC1C(=O)Nc1nccs1)Nc1cccc(F)c1` (racemic) [MCKK-17, 1-(2-(3-fluorophenylamino)-2-oxoethyl)-N-(thiazol-2-yl)pyrrolidine-2-carboxamide]: the EC50 in experiment [1] is 8.3 ± 4 µM; in experiment [2], 164 ± 38 µM; in experiment [4] it was more than 1000 µM. In addition, in experiment [1], the “agonistic activity at hKOP (G protein activation), in words” value (“agonistic activity at hKOP” for short) is recorded as “exhibited agonistic activity”. Further, in experiment [3], the “agonistic activity at MOP (G protein activation), in words” value (“agonistic activity at MOP” for short) is “Neither the racemic nor the MCKK-17 stereoisomers displayed significant activity”. Also, the “inhibition of 3H-diprenorphine binding” value in experiment [5] was “partially but significantly inhibited”; in experiment [5] (listed as MCKK-17(R/S)) it was “significantly inhibited”.
Take `CC[C@]12CCN(CC3CC3)[C@H](C(=O)c3ccc(O)cc31)[C@@H]2C` [EKC, ethylketocyclazocine]: the “bias toward G protein activation over arrestin” value in experiment [6] is listed as “non-biased”.
Consider `O=C(Nc1cccc(-n2cccn2)c1)C1CCCN1Cc1c[nH]cn1` (centres unmarked) [MCKK-4], for which the “agonistic activity at hKOP” value in experiment [1] is “None of the other molecules, MCKK-4, MCKK-5 and MCKK-13, significantly activated GoB”. Besides, the inhibitory constant (Ki) in experiment [7] was 906 ± 836 µM; in experiment [8], 641 ± 192 µM; in experiment [5] it was 292 ± 209 µM. The “inhibition of 3H-diprenorphine binding” value in experiment [5] is given as “partially but significantly inhibited”.
For the compound `CN(CC(=O)NC1CCN(Cc2ccccc2)C1)Cc1ccco1` (centres unmarked) [MCKK-5], in experiment [1], the “agonistic activity at hKOP” value was “None of the other molecules, MCKK-4, MCKK-5 and MCKK-13, significantly activated GoB”. In addition, the Ki in experiment [7] amounted to 428 ± 137 µM; in experiment [8], 179 ± 187 µM; in experiment [5], 134 ± 81 µM. In addition, the “inhibition of 3H-diprenorphine binding” value in experiment [5] is on record as “partially but significantly inhibited”.
Take `O=S1(=O)CCC(NCc2cccc(OCCn3ccnc3)c2)C1` (centres unmarked) [MCKK-13]: the “agonistic activity at hKOP” value in experiment [1] is “None of the other molecules, MCKK-4, MCKK-5 and MCKK-13, significantly activated GoB”. Further, the results for the Ki in experiment [7], in experiment [8] and in experiment [5] were more than 10000 µM, 300 ± 99 µM and 453 ± 27 µM, respectively. Moreover, in experiment [5], the “inhibition of 3H-diprenorphine binding” value was “partially but significantly inhibited”.
With `O=C(CN1CCC[C@@H]1C(=O)Nc1nccs1)Nc1cccc(F)c1` [MCKK-17R, (R)-1-(2-(3-fluorophenylamino)-2-oxoethyl)-N-(thiazol-2-yl)pyrrolidine-2-carboxamide], the results for the EC50 in experiment [1], in experiment [2] and in experiment [4] were 115 ± 9 µM, more than 1000 µM and more than 1000 µM, respectively. The Ki in experiment [7] came to 508 µM; in experiment [8] it was 286 µM; in experiment [5], 2900 µM. Also, the “agonistic activity at MOP” value in experiment [3] is recorded as “Neither the racemic nor the MCKK-17 stereoisomers displayed significant activity”. For the same compound, the “agonistic activity at DOP (G protein activation), in words” value in experiment [4] is reported as “most active enantiomer at the DOP receptor”.
In the case of `O=C(CN1CCC[C@H]1C(=O)Nc1nccs1)Nc1cccc(F)c1` [MCKK-17S, (S)-1-(2-(3-fluorophenylamino)-2-oxoethyl)-N-(thiazol-2-yl)pyrrolidine-2-carboxamide], in experiment [1], the “selectivity for hKOP relative to MOP and DOP receptors (G protein activation)” value was “selective for hKOP relative to MOP and DOP receptors”; the EC50 was found to be 7.2 ± 3.8 µM; the “agonistic activity at hKOP” value is “full agonism relative to EKC; also recorded: more active stereoisomer”. In experiment [6], the “bias toward G protein activation over arrestin” value is recorded as “not biased toward G protein activation over arrestin”. The Ki in experiment [7] was more than 10000 µM. This compound also returned a Ki in experiment [8] of more than 10000 µM. Moreover, the EC50 in experiment [2] was found to be 123 ± 47 µM. Besides, the “agonistic activity at MOP” value in experiment [3] is “Neither the racemic nor the MCKK-17 stereoisomers displayed significant activity”. Moreover, in experiment [4], the “agonistic activity at DOP (G protein activation), in words” value is “did not significantly activate the DOP receptor” and the EC50 was more than 1000 µM. Further, in experiment [5], the “selectivity for hKOP over DOP and MOP receptors (binding affinity)” value is listed as “exhibited selectivity for the hKOP receptor”; the Ki turned out to be 123 ± 38 µM.
As to `O=C(N[C@@H]1CC[C@@]2(O)C3Cc4ccc(O)c5c4[C@@]2(CCN3CC2CC2)[C@H]1O5)c1ccc2ccccc2c1` [NNTA], the “bias toward G protein activation over arrestin” value in experiment [6] was “non-biased”.
Same read-out and setting: to `Oc1ccc2c(c1)[C@@]13CCCC[C@@]1(O)[C@@H](C2)N(CC1CCC1)CC3` [butorphanol] belongs “showed bias toward G protein activation over arrestin”; to `C[C@H]1[C@H]2Cc3ccc(O)cc3[C@]1(C)CCN2CC1CC1` [cyclazocine], “showed bias toward G protein activation over arrestin; also recorded: biased toward G protein activation”.
As to `CN1CC[C@]23CCCC[C@H]2[C@H]1Cc1ccc(O)cc13` [levorphanol], the “bias toward G protein activation over arrestin” value in experiment [6] is given as “showed bias toward G protein activation over arrestin”.
